In PubChem BioAssay (NCI):
Several values for one entry are separate records, joined by “and”; a condition that tells them apart may be missing. Identical values can stand only once.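 The compound was tested at five concentrations on cells cultured in 96-well plates, with a 48-hour exposure period. At the GI50, growth is halved. TGI: concentration producing complete growth inhibition.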

Experiments:
Assay in all cases: NCI tumour cell line growth inhibition, 48 h
SF-268 CNS = tested on: SF-268 CNS
COLO 205 colon = tested on: COLO 205 colon
MOLT-4 leukemia = tested on: MOLT-4 leukemia
OVCAR-4 ovarian = tested on: OVCAR-4 ovarian
786-0 renal = tested on: 786-0 renal
SK-OV-3 ovarian = tested on: SK-OV-3 ovarian
RPMI-8226 leukemia = tested on: RPMI-8226 leukemia
HT29 colon = tested on: HT29 colon
IGROV1 ovarian = tested on: IGROV1 ovarian
OVCAR-5 ovarian = tested on: OVCAR-5 ovarian

SMILES	TGI (SF-268 CNS)	TGI (COLO 205 colon)	TGI (MOLT-4 leukemia)	TGI (OVCAR-4 ovarian)	TGI (786-0 renal)	TGI (SK-OV-3 ovarian)	TGI (RPMI-8226 leukemia)	TGI (HT29 colon)	TGI (IGROV1 ovarian)	TGI (OVCAR-5 ovarian)	GI50 (SF-268 CNS)	GI50 (COLO 205 colon)	GI50 (MOLT-4 leukemia)	GI50 (OVCAR-4 ovarian)	GI50 (786-0 renal)	GI50 (SK-OV-3 ovarian)	GI50 (HT29 colon)	GI50 (IGROV1 ovarian)	GI50 (OVCAR-5 ovarian)	GI50 (RPMI-8226 leukemia)
O=c1c2ccccc2c(=O)n2n1CC=CC2	> 100 µM	> 100 µM	> 100 µM	> 100 µM	> 100 µM	> 100 µM	> 100 µM	> 100 µM	> 100 µM	> 100 µM										
COc1ccc(/C=C/C(=O)c2ccc(O)c(CN3CCN(c4cc5c(cc4F)c(=O)c(C(=O)O)cn5C4CC4)CC3)c2)cc1	> 100 µM	33.4 µM	> 100 µM	> 100 µM	> 100 µM	43.2 µM		> 100 µM	> 100 µM	> 100 µM	2.32 µM	11.8 µM	5.29 µM	54.9 µM	0.854 µM	2.56 µM	1.08 µM	1.27 µM	4.61 µM	
COc1ccc2c(c1)[n+]([O-])c(-c1ccc(OC)c(OC)c1)c(N)[n+]2[O-]	> 100 µM	34.5 µM	> 100 µM	> 100 µM	> 100 µM	> 100 µM	> 100 µM	> 100 µM	> 100 µM	> 100 µM										
O=C1NC2(CCCCCC2)C2CCCCCCC12O (centres undefined)	> 100 µM	> 100 µM	> 100 µM	> 100 µM	> 100 µM	> 100 µM		> 100 µM	> 100 µM	> 100 µM										
N.N.N.N.N.[Cl-].[Co+3].c1ccc(-c2nn[n-]n2)cc1	> 100 µM	> 100 µM	> 100 µM	> 100 µM	> 100 µM	> 100 µM	> 100 µM	> 100 µM	> 100 µM	> 100 µM	> 100 µM	> 100 µM	> 100 µM	> 100 µM	> 100 µM	> 100 µM	> 100 µM	> 100 µM	> 100 µM	> 100 µM
COC(=O)c1ccccc1OCc1cc(=O)oc2ccc(C)cc12	> 82.7 µM	> 100 µM	> 100 µM	> 63.4 µM	> 100 µM	> 100 µM	> 100 µM	> 100 µM	> 100 µM	> 100 µM										
COCC(O)Cn1ccnc1[N+](=O)[O-] (centres undefined)	> 100 µM	> 100 µM	> 100 µM		> 100 µM	> 100 µM	> 100 µM	> 100 µM		> 100 µM										
CN[C@H](C#Cc1c(F)ccc2c1/C(=C/c1[nH]ccc1OC)C(=O)N2)CO	2.21 µM	3.39 µM	3.8 µM	4.22 µM	4.18 µM	8.12 µM	1.8 µM	2.39 µM	3.32 µM	3.71 µM	0.509 µM	0.897 µM	0.386 µM	0.631 µM	0.462 µM	0.117 µM	0.438 µM	0.682 µM	0.917 µM	0.689 µM
Cc1oc2c(C)c3oc(=O)cc(C)c3cc2c1CN1C(=O)C2OCCOCCOCCOCCOCCO[C@H]2C1=O (some centres undefined)	> 100 µM	> 100 µM	> 100 µM	> 100 µM	> 100 µM	> 100 µM	> 100 µM	> 100 µM	> 100 µM	> 100 µM										
O=C(Nc1cccc(-n2cc(-c3ccncc3)c(-c3cc(O)cc(Cl)c3)n2)c1)Nc1ccc(Cl)c(C(F)(F)F)c1	16 µM	5.17 µM	5.81 µM	9.23 µM	4.45 µM	30.7 µM	5.09 µM	4.58 µM	12.6 µM	13.1 µM	3.1 µM	2.25 µM	1.99 µM	3.21 µM	1.83 µM	4.11 µM	2.12 µM	3.81 µM	3.79 µM	1.95 µM
CC1OC(OC2C[C@](O)(C(=O)CF)Cc3c(O)c4c(c(O)c32)C(=O)c2ccccc2C4=O)CC(N)C1O (some centres undefined)	1.37 µM	0.266 µM	0.0101 µM	0.86 µM	0.173 µM	1.04 µM	0.132 µM	0.0905 µM	2.4 µM	0.541 µM										
CCC(C)[C@H]1O[C@]2(C=C[C@@H]1C)C[C@@H]1C[C@@H](C/C=C(\C)[C@@H](OC3C[C@H](OC)C(O[C@H]4C[C@H](OC)[C@@H](O)[C@H](C)O4)[C@H](C)O3)[C@@H](C)/C=C/C=C3\CO[C@@H]4[C@H](O)C(C)=C[C@@H](C(=O)O1)[C@]34O)O2 (some centres undefined)	2.14 µM	1.62 µM		4.76 µM	1.56 µM	8.23 µM	50 µM	1.78 µM		7.86 µM	1.01 µM	0.86 µM		1.67 µM	0.728 µM	2.17 µM	0.857 µM		2.06 µM	1.58 µM
C1=CC=C2NCCCCCCCNC3=CC=CC=CC3=NCCCCCCCN=C2C=C1	> 100 µM	> 100 µM	> 100 µM	> 100 µM	> 100 µM		> 100 µM	> 100 µM		> 100 µM										
COc1cccc2c1C(=O)c1c(O)c3c(c(O)c1C2=O)CC(O)(C(O)CO)CC3OC1CC(N2CCOCC2)C(O)C(C)O1 (centres undefined)	0.0166 µM and 0.158 µM		0.205 µM and 0.185 µM		0.148 µM and 0.0989 µM		0.147 µM and 0.486 µM			0.0926 µM and 0.0935 µM	0.0265 µM	0.0278 µM	0.0097 µM and 0.0243 µM	0.0145 µM	< 0.001 µM	0.0579 µM		0.0288 µM	0.0331 µM	0.0191 µM
CN1CCN(CCOc2ccc(-c3cnc4c(-c5ccc(C(F)(F)F)cc5)cnn4c3)cc2)CC1	3.44 µM			2.48 µM	3.16 µM			2.38 µM	3.06 µM	2.96 µM	1.7 µM			1.16 µM	1.67 µM		0.993 µM	1.55 µM	1.59 µM	
OCC(O)C(Cl)CCl (centres undefined)	> 100 µM	> 100 µM	> 100 µM	> 100 µM	> 100 µM	> 100 µM		> 100 µM	> 100 µM	> 100 µM										
